From patent publication US9801925B2, “Potentiation of glucose elimination” (MannKind Corporation, priority 1999, dated 2017)

Experiment: Excretion of FDKP after pulmonary administration of Technosphere particles
Format: in vivo
Excerpt: Technosphere® refers to a diketopiperazine-based drug delivery system which can complex and stabilize peptides in small particles. Diketopiperazines, particularly fumaryl diketopiperazine (FDKP), self-assemble into microparticles with a mean diameter of about 2 microns. In the process it can entrap or complex with peptides, such as insulin, present in the solution during or after self-assembly. Once dried, these microparticles become a suitable composition for pulmonary delivery to the systemic circulation. When administered by the pulmonary route, Technosphere® particles dissolve in the pH neutral environment of the deep lung and facilitate the rapid and efficient absorption of the peptide into systemic circulation.

For `O=C(O)/C=C/C(=O)NCCCCC1NC(=O)C(CCCCNC(=O)/C=C/C(=O)O)NC1=O` (stereo not shown) [FDKP, 3,6-di(fumaryl-4-aminobutyl)-2,5-diketopiperazine], the excretion was “excreted un-metabolized in the urine within hours of administration”.
